Article PMC7011792 (Journal of Enzyme Inhibition and Medicinal Chemistry, 2017)
Where two headings read alike, the source gives them in different places.

Columns and labels:
[1] = molecular target: T1, AChE (EC 3.1.1.7) from electric eel (Electrophorus electricus, UniProt O42275); test: biochemical; conditions: for IC50: AChE from electric eel, mean ± SEM of three experiments; for Selectivity index (SI) = BuChE IC50/AChE IC50: eqBuChE IC50 / eeAChE IC50
T1 construct: purchased Sigma-Aldrich C3389
Experimental: (§1) AChE (EC 3.1.1.7, Type VI-S, from electric eel, C3389; from human, C1682) and BuChE (EC 3.1.1.8, from equine serum, C0663; from human, B4186), 5,5'-dithiobis (2-nitrobenzoic acid) (DTNB, D218200), acetylthiocholine iodide (ATC, A5751), and butyrylthiocholine iodide (BTC, B3253) were obtained from Sigma-Aldrich (St. Louis, MO).
(§2) The inhibitory effects of the synthesised compounds in this paper were evaluated according to our previously reported method. […] ATC/BTC iodide solution (0.075 M) was prepared in deionised water. […] The assay buffer was prepared as follows: potassium dihydrogen phosphate (1.36 g, 10 mmol) was dissolved in 100 ml of water. The pH of the solution was then adjusted to 8.0 ± 0.1 with KOH. Stock solutions of the test samples were dissolved in ethanol to give a final concentration of 10^−4 M when diluted to the final volume of 3.32 ml. For each compound, a dilution series of at least five different concentrations (normally 10^−5–10^−9 M) were prepared.
(§3) For measurement, a cuvette containing 3.0 ml of phosphate buffer, 100 µL of AChE or BuChE, 100 µL of DTNB, and 100 µL of the test compound solution were added in sequence. The reaction was initiated after adding 20 µL of ATC or BTC, and the solution was mixed immediately. […] For the reference value, 100 µL of water replaced the test compound solution. For the blank control, additionally 100 µL of water replaced the enzyme solution. The measurement for each concentration was assayed in triplicate. GraphPad Prism 5 was used for data processing. The inhibition curve was fitted by plotting percentage enzyme activity (100% for the reference) versus logarithm of test compound concentration. The IC50 values were calculated according to the curve, and the data were shown in mean ± SEM.
(§4) The inhibitory effects on ChEs of all the target compounds were determined according to Ellman’s method. AChE from electrophorus electricus (eeAChE) and BuChE from equine serum (eqBuChE) were used in the assays.

[2] = molecular target: T2, BuChE (EC 3.1.1.8) from horse serum (Equus caballus, UniProt P81908); test: biochemical; type: biochemical; conditions: BuChE from horse serum; mean ± SEM of three experiments
T2 construct: purchased Sigma-Aldrich C0663; host or cells: equine serum
Experimental: as §1, §2, §3, §4

[3] = molecular target: T3, AChE (EC 3.1.1.7) from human (Homo sapiens, UniProt P22303); test: Human AChE inhibition, Ellman's method; type: biochemical; conditions: for IC50: huAChE, mean ± SEM; for Selectivity index (SI) = BuChE IC50/AChE IC50, human enzymes: huBuChE IC50 / huAChE IC50
T3 construct: purchased Sigma-Aldrich C1682
Experimental: as §1
(§5) The inhibitory effects of the synthesised compounds in this paper were evaluated according to our previously reported method. Briefly, AChE/BuChE stock solution was diluted to give 2.5 units/mL (for eeAChE, eqBuChE, and huAChE) or 0.5 units/mL for huBuChE. ATC/BTC iodide solution (0.075 M) was prepared in deionised water. DTNB solution (0.01 M) was prepared using water containing 0.15% (w/v) sodium bicarbonate. The assay buffer was prepared as follows: potassium dihydrogen phosphate (1.36 g, 10 mmol) was dissolved in 100 ml of water. The pH of the solution was then adjusted to 8.0 ± 0.1 with KOH. Stock solutions of the test samples were dissolved in ethanol to give a final concentration of 10^−4 M when diluted to the final volume of 3.32 ml. For each compound, a dilution series of at least five different concentrations (normally 10^−5–10^−9 M) were prepared.
(§6) For measurement, a cuvette containing 3.0 ml of phosphate buffer, 100 µL of AChE or BuChE, 100 µL of DTNB, and 100 µL of the test compound solution were added in sequence. The reaction was initiated after adding 20 µL of ATC or BTC, and the solution was mixed immediately. Two minutes (eeAChE and eqBuChE) or 15 min (huAChE and huBuChE) after ATC or BTC addition, the absorption was measured at 25 °C (eeAChE and eqBuChE) or 37 °C (huAChE and huBuChE) at 412 nm, using a Shimadzu 160 spectrophotometer. For the reference value, 100 µL of water replaced the test compound solution. For the blank control, additionally 100 µL of water replaced the enzyme solution. The measurement for each concentration was assayed in triplicate. GraphPad Prism 5 was used for data processing. The inhibition curve was fitted by plotting percentage enzyme activity (100% for the reference) versus logarithm of test compound concentration. The IC50 values were calculated according to the curve, and the data were shown in mean ± SEM.

[4] = molecular target: T4, BuChE (EC 3.1.1.8) from human (Homo sapiens, UniProt P06276); test: Human BuChE inhibition, Ellman's method; type: biochemical; conditions: huBuChE; mean ± SEM
T4 construct: purchased Sigma-Aldrich B4186
Experimental: as §1, §5
as §6, with “The inhibition curve was fitted by plotting percentage enzyme activity (100% for the reference) versus logarithm of test compound concentration.” left out

[5] = molecular target: T5, Aβ1–42 (Homo sapiens, UniProt P05067); test: Inhibition of self-induced Aβ1–42 aggregation (Thioflavin T assay); type: biochemical; conditions: compound 25 μM, 24 h, read-out: Inhibitory rate on self-induced Aβ1-42 aggregation
T5 construct: aliquots of 2.0 µL of Aβ1–42 (AS-64129–05 Anaspec Inc.); purchased Anaspec Inc. AS-64129–05
Experimental: Inhibitory effects of the compounds on self-induced Aβ1–42 aggregation were evaluated using a Thioflavin T (ThT)-(T3516, Sigma-Aldrich, St. Louis, MO) binding assay according to the previously reported method. […] The Aβ1–42 and the test sample solutions were incubated for 24 h at the room temperature.
The inhibitory rate of Aβ1–42 self-induced aggregation was calculated according to the following equation: (1-IFi/IFc) × 100%. IFi and IFc were the fluorescence intensities in the presence and absence of inhibitors, respectively, after subtracting the background fluorescence of the 5 mM Thioflavin T solution. Each measurement was repeated in triplicate. The inhibitory rate of the test compound was shown in mean ± SD.

[6] = system: ICR mice; conditions: for ALT (U/L) / AST (U/L): mice serum, n = 6
Experimental: The activity of AST and ALT, two indicators of liver damage, was determined using corresponding assay kit (EF551 and EF550 for ALT, EH027, and EF548 for AST, Wako, Japan).
One hour after the collection of retrobulbar blood, mice were sacrificed and livers were harvested for morphological studies by using immunohistochemical method. Two 3 mm sections of each liver extending from the hilus to the margin of the left lateral lobe were isolated by Ultra-Thin Semiautomatic Microtome (Leica RM2245, Germany) and immediately placed in 10% buffered formaldehyde, fixed for two days, and embedded together in one paraffin block by using Paraffin Embedding Station (Leica EG1150H, Germany). Subsequently, 5 µm sections were prepared from these paraffin blocks. They were deparaffinated and stained with hematoxylin and eosin or by means of the periodic acid-Schiff procedure for glycogen.

[7] = system: ICR mice; test: Morris water maze test, scopolamine-induced cognitive impairment; conditions: for Latency to target (second), Day 5 / Latency to target (second), Day 6 / Latency to target (second), Day 7 / Latency to target (second), Day 8 / Latency to target (second), Day 9: learning and training, oral, plus scopolamine; for Latency to target (second), Day 5 / Latency to target (second), Day 6 / Latency to target (second), Day 7 / Latency to target (second), Day 8 / Latency to target (second), Day 9 / Latency to Target: ICR mice; for Latency to Target: probe trial, oral administration plus scopolamine (1 mg/kg ip), mean ± SEM, n = 6; for trajectory in the Morris water maze test: scopolamine-impaired ICR mice, compared to tacrine group
[8] = 22 h after ig administration, 151.5 µmol/kg
[9] = 36 h after ig administration, 151.5 µmol/kg

T5 sequence (P05067 672-713): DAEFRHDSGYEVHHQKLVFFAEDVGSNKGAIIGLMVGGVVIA
T1 sequence (O42275 24-633): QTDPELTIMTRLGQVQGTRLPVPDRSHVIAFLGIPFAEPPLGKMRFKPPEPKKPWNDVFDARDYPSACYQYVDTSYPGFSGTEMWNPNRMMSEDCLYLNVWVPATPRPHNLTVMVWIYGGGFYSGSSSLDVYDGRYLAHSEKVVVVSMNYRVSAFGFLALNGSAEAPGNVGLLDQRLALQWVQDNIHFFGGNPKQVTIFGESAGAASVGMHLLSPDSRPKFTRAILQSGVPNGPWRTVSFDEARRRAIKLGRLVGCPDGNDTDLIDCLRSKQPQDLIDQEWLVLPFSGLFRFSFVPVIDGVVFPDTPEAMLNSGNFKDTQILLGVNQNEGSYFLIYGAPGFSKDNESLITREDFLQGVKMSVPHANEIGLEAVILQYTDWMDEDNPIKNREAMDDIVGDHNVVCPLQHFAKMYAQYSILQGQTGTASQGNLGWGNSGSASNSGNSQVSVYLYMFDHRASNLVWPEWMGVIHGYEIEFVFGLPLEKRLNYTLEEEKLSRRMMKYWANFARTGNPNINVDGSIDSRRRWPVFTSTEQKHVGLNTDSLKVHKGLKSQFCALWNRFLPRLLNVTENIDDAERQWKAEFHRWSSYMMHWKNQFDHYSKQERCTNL
T3 sequence (P22303 32-614): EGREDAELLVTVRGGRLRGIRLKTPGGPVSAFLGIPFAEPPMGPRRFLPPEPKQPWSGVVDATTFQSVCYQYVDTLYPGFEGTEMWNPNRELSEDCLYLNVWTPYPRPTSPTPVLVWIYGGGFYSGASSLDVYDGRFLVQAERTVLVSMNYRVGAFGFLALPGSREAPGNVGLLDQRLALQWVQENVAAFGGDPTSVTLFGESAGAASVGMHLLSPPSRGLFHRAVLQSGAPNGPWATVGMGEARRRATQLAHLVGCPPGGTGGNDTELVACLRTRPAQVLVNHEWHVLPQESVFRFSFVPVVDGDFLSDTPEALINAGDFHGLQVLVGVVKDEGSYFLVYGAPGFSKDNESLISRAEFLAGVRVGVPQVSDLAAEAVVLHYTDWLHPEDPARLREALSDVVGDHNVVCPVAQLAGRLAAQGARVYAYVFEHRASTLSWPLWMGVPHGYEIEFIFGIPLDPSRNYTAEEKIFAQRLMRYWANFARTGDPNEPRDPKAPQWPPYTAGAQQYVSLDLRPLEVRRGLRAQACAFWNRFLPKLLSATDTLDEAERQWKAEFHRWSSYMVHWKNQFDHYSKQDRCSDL
T4 sequence (P06276 29-602): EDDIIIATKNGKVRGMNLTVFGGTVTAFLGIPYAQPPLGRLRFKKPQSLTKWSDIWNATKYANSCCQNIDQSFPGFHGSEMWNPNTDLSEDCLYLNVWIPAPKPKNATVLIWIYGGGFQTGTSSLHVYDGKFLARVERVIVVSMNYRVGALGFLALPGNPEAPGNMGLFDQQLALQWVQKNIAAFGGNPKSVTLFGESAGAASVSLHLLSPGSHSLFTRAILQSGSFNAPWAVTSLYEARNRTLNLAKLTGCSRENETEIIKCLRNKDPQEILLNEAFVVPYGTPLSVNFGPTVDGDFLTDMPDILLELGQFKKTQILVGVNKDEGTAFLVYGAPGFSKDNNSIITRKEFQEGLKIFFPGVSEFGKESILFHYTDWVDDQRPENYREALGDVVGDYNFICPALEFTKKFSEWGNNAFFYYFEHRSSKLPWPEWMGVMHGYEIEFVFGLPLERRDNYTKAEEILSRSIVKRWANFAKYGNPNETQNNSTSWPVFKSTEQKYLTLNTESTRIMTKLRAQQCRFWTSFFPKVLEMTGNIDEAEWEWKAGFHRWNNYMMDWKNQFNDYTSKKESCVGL
T2 sequence (P81908 whole entry): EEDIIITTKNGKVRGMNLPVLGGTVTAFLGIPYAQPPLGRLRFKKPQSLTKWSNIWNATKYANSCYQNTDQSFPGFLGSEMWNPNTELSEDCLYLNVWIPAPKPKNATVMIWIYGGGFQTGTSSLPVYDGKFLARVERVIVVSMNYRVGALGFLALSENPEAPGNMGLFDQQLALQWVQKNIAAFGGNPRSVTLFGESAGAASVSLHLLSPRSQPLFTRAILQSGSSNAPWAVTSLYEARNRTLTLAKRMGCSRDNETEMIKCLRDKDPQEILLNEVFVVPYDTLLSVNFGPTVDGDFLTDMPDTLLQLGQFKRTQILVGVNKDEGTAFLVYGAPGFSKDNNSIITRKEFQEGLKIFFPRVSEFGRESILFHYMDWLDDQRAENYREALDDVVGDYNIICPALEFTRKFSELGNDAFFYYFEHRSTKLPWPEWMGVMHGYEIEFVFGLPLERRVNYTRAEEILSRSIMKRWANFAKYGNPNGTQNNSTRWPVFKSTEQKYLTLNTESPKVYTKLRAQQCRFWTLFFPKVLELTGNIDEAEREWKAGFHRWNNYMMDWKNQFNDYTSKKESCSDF

Compound	IC50 [1] [nM]	Selectivity index (SI) = BuChE IC50/AChE IC50 [1]	IC50 [2] [nM]	IC50 [3] [nM]	Selectivity index (SI) = BuChE IC50/AChE IC50, human enzymes [3]	IC50 [4] [nM]	inhibition at 25 µM [5] [%]	morphologic changes in liver ([6]; mouse, in vivo)	Latency to target (second), Day 5 [7] [s]	Latency to target (second), Day 6 [7] [s]	Latency to target (second), Day 7 [7] [s]	Latency to target (second), Day 8 [7] [s]	Latency to target (second), Day 9 [7] [s]	Latency to Target [7] [s]	trajectory in the Morris water maze test [7]	further results
O=C(/C=C/c1ccc(Cl)cc1)NCCCCCCNc1c2c(nc3ccccc13)CCCC2 [Compound 27, (E)-3-(4-chlorophenyl)-N-(6-((1,2,3,4-tetrahydroacridin-9-yl)amino)hexyl)acrylamide]	6.9 ± 1.2	1.9	12.9 ± 1.7	16.5	0.3	5.7	42.2	did not cause remarkable morphologic changes in liver	57.1 ± 6.8	41.5 ± 5.0	39.2 ± 4.3	27.6 ± 2.5	28.3 ± 1.7	25.6 ± 1.8	much shortened distances as compared to tacrine group	–
COc1ccc(/C=C/C(=O)NCCCCCCNc2c3c(nc4ccccc24)CCCC3)cc1 [Compound 30, (E)-3-(4-methoxyphenyl)-N-(6-((1,2,3,4-tetrahydroacridin-9-yl)amino)hexyl)acrylamide]	3.7 ± 1.5	6.1	22.5 ± 5.9	15.3	0.5	8	34.6	did not cause remarkable morphologic changes in liver	59.1 ± 7.0	47.3 ± 6.6	46.4 ± 6.8	32.4 ± 5.3	33.2 ± 4.0	29.4 ± 1.9	much shortened distances as compared to tacrine group	–
Oc1ccc(/C=C/c2cc(O)cc(O)c2)cc1 [Resveratrol, reference compound]	–	–	–	–	–	–	30.4	–	–	–	–	–	–	–	–	–
Nc1c2c(nc3ccccc13)CCCC2 [Tacrine, reference compound]	–	–	–	–	–	–	–	–	69.2 ± 11.0	58.3 ± 7.9	50.3 ± 6.3	37.1 ± 5.1	38.2 ± 2.6	34.5 ± 1.3	–	ALT (U/L) ([6]; 8 h after ig administration, 151.5 µmol/kg (tacrine 30 mg/kg, equimolar test compounds)): 38.0 ± 3.5 U/L; AST (U/L) ([6]; 8 h after ig administration, 151.5 µmol/kg): 134.5 ± 9.9 U/L; ALT (U/L) [6, 8]: 38.7 ± 5.2 U/L; AST (U/L) [6, 8]: 125.8 ± 16.2 U/L; morphologic changes in liver ([6]; 36 h after administration, HE staining, compared to control group): did not cause remarkable morphologic changes in liver; ALT (U/L) [6, 9]: 40.9 ± 3.5 U/L; AST (U/L) [6, 9]: 138.7 ± 8.5 U/L
